From ChEMBL document CHEMBL3046389, “Synthesis and biological evaluation of novel hydroquinone dimethyl ethers as potential anticancer and antimicrobial agents” (2013)
Values after ≈ are worked out from the molar mass of the structure shown.

Experiments:
Type in all cases: functional
Staphylococcus aureus [1] = assay: Antimicrobial activity against Staphylococcus aureus DSM 1104 after 48 hr by two-fold serial broth dilution method; settings: DSM 1104, 48 h
Escherichia coli = assay: Antimicrobial activity against Escherichia coli ATCC 11775 after 48 hr by two-fold serial broth dilution method; settings: ATCC 11775, 48 h
Staphylococcus aureus [2] = assay: Antimicrobial activity against Staphylococcus aureus DSM 1104 after 48 hr by two-fold serial broth dilution method relative to ampicillin
Pseudomonas aeruginosa [3] = assay: Antimicrobial activity against Pseudomonas aeruginosa ATCC 10145 after 48 hr by two-fold serial broth dilution method; settings: ATCC 10145, 48 h
Candida albicans [4] = assay: Antimicrobial activity against Candida albicans DSM 70014 after 48 hr by two-fold serial broth dilution method relative to clotrimazole
Candida albicans [5] = assay: Antimicrobial activity against Candida albicans DSM 70014 after 48 hr by two-fold serial broth dilution method; settings: DSM 70014, 48 h
Bacillus subtilis = assay: Antimicrobial activity against Bacillus subtilis ATCC 6633 after 48 hr by two-fold serial broth dilution method; settings: ATCC 6633, 48 h
Pseudomonas aeruginosa [6] = assay: Ratio of ampicillin MIC to compound MIC for Pseudomonas aeruginosa ATCC 10145 after 48 hr by two-fold serial broth dilution method
HOP-92 = assay: Growth inhibition of Homo sapiens (human) HOP92 cells at 10 uM after 48 hr by SRB assay; settings: HOP-92, 48 h, read-out: GI

MIC (Staphylococcus aureus [1]) [µg/mL] | MIC (Escherichia coli) [µg/mL] | MIC (Pseudomonas aeruginosa [3]) [µg/mL] | MIC (Candida albicans [5]) [µg/mL] | MIC (Bacillus subtilis) [µg/mL] | Structure (SMILES) | MBC (Staphylococcus aureus [1]) [µg/mL] | MBC (Escherichia coli) [µg/mL] | Activity (Staphylococcus aureus [2]) [%] | MBC (Pseudomonas aeruginosa [3]) [µg/mL] | Activity (Candida albicans [4]) [%] | MFC (Candida albicans [5]) [µg/mL] | MBC (Bacillus subtilis) [µg/mL] | Ratio (Pseudomonas aeruginosa [6]) | inhibition of growth at 10 µM (HOP-92) [%]
12.5 (≈ 24.8 µM) | 25 (≈ 49.6 µM) | 50 (≈ 99.3 µM) | 12.5 (≈ 24.8 µM) | 25 (≈ 49.6 µM) | COc1ccc(OC)c(/C=C/c2nnc(SCC(=O)c3cc(O)ccc3O)n2-c2ccc(C)cc2)c1 | 25 (≈ 49.6 µM) | 50 (≈ 99.3 µM) | 40 | 50 (≈ 99.3 µM) | 40 | 25 (≈ 49.6 µM) | 50 (≈ 99.3 µM) |  | 
25 (≈ 77.3 µM) | 50 (≈ 155 µM) | 12.5 (≈ 38.7 µM) | 50 (≈ 155 µM) | 12.5 (≈ 38.7 µM) | COc1ccc(OC)c(/C=C/c2nnc(Nc3ccccc3)o2)c1 | 50 (≈ 155 µM) | 50 (≈ 155 µM) |  | 25 (≈ 77.3 µM) |  | 50 (≈ 155 µM) | 25 (≈ 77.3 µM) | 4 | 37.5
